The test system of this experiment is Akkermansia muciniphila. Nature of the experiment: Effects of prebiotic compositions with different components on growth of Akkermansia muciniphila (Example 2). It is filed as cell-based. The source says: The xylooligosaccharide used was purchased from Shandong Longlive Bio-Technology Co., Ltd. The lactitol used was purchased from Welltech Biotechnology Co., Ltd. The inulin used was purchased from Cosucra. The fructooligosaccharide used was purchased from Meiji. The grape ferment used was the grape ferment prepared in Example 1. The liquid medium used was tryptone soy broth (TSB; hereinafter referred to as TSB medium) with 5% sheep blood (purchased from BD).
The groups were divided into blank group, 5 experimental groups (experimental groups A-E) and 5 control groups (control groups A-E), as shown in Table 1.
The experimental medium used in control groups A-E included 94% TSB medium, 5% sheep blood and 1% single-component prebiotic compositions A-E, respectively; and the single-component prebiotic compositions A-E were xylooligosaccharide, lactitol, inulin, fructooligosaccharide and grape ferment, respectively. […]
1% activated Akkermansia muciniphila was respectively added to a 15 mL test tube containing 5 mL of medium of each group, and subjected to anaerobic culture at 37° C. for 48 hours. After 48 hours of culture, 100 μL of bacterial suspension was respectively taken from the test tube of each group, added to the solid TSB medium containing 5% sheep blood, and subjected to anaerobic culture at 37° C. for 72 hours, and then, the bacterial count of each group was calculated. […]

Take `OC[C@@H](O)[C@@H](O[C@@H]1O[C@H](CO)[C@H](O)[C@H](O)[C@H]1O)[C@H](O)[C@@H](O)CO` [control group B, lactitol]: the bacterial count (1% prebiotic composition in 94% TSB medium + 5% sheep blood, anaerobic culture at 37° C. for 48 hours, then plated 72 hours, blank group 6.50 log CFU) is 6.67 log CFU. Besides, the “effect on bacterial count/growth of Akkermansia muciniphila as compared with the blank group” value (1% prebiotic composition in medium, FIG. 1) is recorded as “increased the bacterial count of Akkermansia muciniphila”.
